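Interpolation was linear, between the two tested concentrations surrounding the appropriate level; five concentrations were tested over 48 hours in 96-well plates. At the GI50, growth is halved. TGI is the concentration that stops growth completely.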

Some test systems named below: SK-MEL-2 melanoma; HCC-2998 colon; SNB-75 CNS; RPMI-8226 leukemia; NCI-H23 lung; UO-31 renal; OVCAR-5 ovarian; SK-MEL-5 melanoma; MDA-MB-435; SF-539 CNS.
Holding throughout (experiment): NCI-60 cell line screen, 48 h

`CN(C)c1ccc(N=C2C=CC(=[N+](C)C)C=C2)cc1`: the GI50 in the experiment on SK-MEL-2 melanoma was 3.05 µM; with HCC-2998 colon, 9.03 µM; with SNB-75 CNS, 5.86 µM; in the experiment with RPMI-8226 leukemia, 3.2 µM; in the experiment with NCI-H23 lung, 3.52 µM; in the experiment on UO-31 renal, 11.3 µM. Further, the GI50 was 20.4 µM with OVCAR-5 ovarian, 3.26 µM in the experiment on SK-MEL-5 melanoma, 6.34 µM with MDA-MB-435 and 11.7 µM with SF-539 CNS. The TGI was found to be 13 µM with SK-MEL-2 melanoma; 65.8 µM with HCC-2998 colon; 21.2 µM in the experiment on SNB-75 CNS; 11.4 µM in the experiment on RPMI-8226 leukemia; 29.4 µM with NCI-H23 lung; 47.6 µM with UO-31 renal. In addition, the TGI in the experiment on OVCAR-5 ovarian came out at 76.6 µM; in the experiment on SK-MEL-5 melanoma, 11.8 µM; with MDA-MB-435, 29.2 µM; in the experiment on SF-539 CNS, 45.8 µM.

For `C[C@]12CC[C@H](O)C[C@H]1CC[C@@H]1[C@@H]2CC[C@]2(C)[C@@H](C3=CC(=O)OC3)[C@@H](O)C[C@]12O`, the TGI with SK-MEL-2 melanoma was found to be 5.02 µM; in the experiment on HCC-2998 colon it was 6.7 µM; in the experiment with SNB-75 CNS, 16.7 µM; in the experiment with RPMI-8226 leukemia, 8.07 µM; in the experiment with NCI-H23 lung, 2.47 µM; with UO-31 renal, 2.26 µM. Moreover, the TGI in the experiment on OVCAR-5 ovarian worked out at 8.03 µM; in the experiment on SK-MEL-5 melanoma, 3.2 µM; in the experiment on MDA-MB-435 it was 10.3 µM; in the experiment with SF-539 CNS, 2.28 µM.

For the compound `CC(=O)c1cc(C(=O)c2ccc3c(c2)Sc2ccccc2N3)c2c(C)cc(C)cn12`, the GI50 with SK-MEL-2 melanoma was 0.317 µM; with HCC-2998 colon it was 0.494 µM; in the experiment on SNB-75 CNS it was 0.171 µM; with RPMI-8226 leukemia, 0.361 µM; in the experiment on NCI-H23 lung, 0.482 µM; with UO-31 renal it was 0.635 µM. Also, the GI50 in the experiment on OVCAR-5 ovarian was 0.794 µM; with SK-MEL-5 melanoma, 0.402 µM; in the experiment on MDA-MB-435, 0.0468 µM; in the experiment on SF-539 CNS it was 0.185 µM. Also, the TGI was > 100 µM with SK-MEL-2 melanoma; > 100 µM in the experiment with HCC-2998 colon; 1.5 µM in the experiment on SNB-75 CNS; > 27.9 µM in the experiment on RPMI-8226 leukemia; > 100 µM with NCI-H23 lung; > 100 µM with UO-31 renal. The TGI is > 100 µM in the experiment with OVCAR-5 ovarian, 2.13 µM in the experiment with SK-MEL-5 melanoma, 0.237 µM with MDA-MB-435 and 0.535 µM with SF-539 CNS.

As for `CCOC(=O)c1c(C)n2c(=O)cc(C)c3c(O)c(O)cc1c32`, the GI50 in the experiment with SK-MEL-2 melanoma is 20.9 µM; with HCC-2998 colon, 40.8 µM; with SNB-75 CNS, 35.6 µM; with RPMI-8226 leukemia, 1.92 µM; in the experiment on NCI-H23 lung it was 10.9 µM; in the experiment on UO-31 renal, 5.7 µM. Also, the GI50 with OVCAR-5 ovarian was 43.8 µM; in the experiment on SK-MEL-5 melanoma, 4.67 µM; with MDA-MB-435 it was 14.5 µM; in the experiment with SF-539 CNS, 16.6 µM. Besides, the TGI in the experiment with SK-MEL-2 melanoma is > 100 µM; in the experiment with HCC-2998 colon, > 100 µM; with SNB-75 CNS, > 100 µM; in the experiment with RPMI-8226 leukemia, 15.1 µM; in the experiment with NCI-H23 lung it was 51.6 µM; with UO-31 renal, > 100 µM. The TGI in the experiment on OVCAR-5 ovarian was > 100 µM; in the experiment on SK-MEL-5 melanoma, 24.1 µM; in the experiment with MDA-MB-435 it was > 100 µM; with SF-539 CNS, 55.3 µM.

Regarding `N/N=C(\C(=O)Nc1ccc(Cl)cc1Cl)C(c1cnc2ccccc2n1)[N+](=O)[O-]` (stereo unspecified), the TGI with SK-MEL-2 melanoma, in the experiment with HCC-2998 colon, in the experiment on SNB-75 CNS, with RPMI-8226 leukemia, in the experiment with NCI-H23 lung and in the experiment with UO-31 renal was > 100 µM throughout. Also, the TGI with OVCAR-5 ovarian, with SK-MEL-5 melanoma, with MDA-MB-435 and in the experiment with SF-539 CNS was > 100 µM in each case.

On to `c1cc2[nH]ncc2cc1-c1nc2ccc3[nH]ncc3c2c2c1CCCC2`, for which the GI50 with SK-MEL-2 melanoma was 0.509 µM; with HCC-2998 colon, 1.98 µM; in the experiment with SNB-75 CNS it was 0.998 µM; in the experiment on RPMI-8226 leukemia, 0.799 µM; in the experiment with NCI-H23 lung, 1.83 µM; in the experiment with UO-31 renal it was 1.33 µM. Further, the GI50 in the experiment with OVCAR-5 ovarian was 3.06 µM; with SK-MEL-5 melanoma, 1.67 µM; with MDA-MB-435 it was 0.315 µM; in the experiment with SF-539 CNS, 1.53 µM. Further, the TGI stood at 2.15 µM in the experiment with SK-MEL-2 melanoma; 9.79 µM in the experiment with HCC-2998 colon; 4.36 µM with SNB-75 CNS; 4.9 µM in the experiment with RPMI-8226 leukemia; 7.44 µM with NCI-H23 lung; 4.54 µM with UO-31 renal. In addition, the TGI in the experiment with OVCAR-5 ovarian is 18.5 µM; in the experiment with SK-MEL-5 melanoma, 3.92 µM; with MDA-MB-435 it was 3.74 µM; in the experiment with SF-539 CNS, 5.4 µM.

On to `Cc1ccccc1-n1ncc(C(=O)c2ccccc2)c1N`, for which the GI50 in the experiment with SK-MEL-2 melanoma was > 25 µM; in the experiment with HCC-2998 colon, > 25 µM; in the experiment on SNB-75 CNS it was > 9.3 µM; with RPMI-8226 leukemia it was > 25 µM; with NCI-H23 lung, > 25 µM; in the experiment with UO-31 renal it was > 25 µM. For the same compound, the GI50 with OVCAR-5 ovarian, in the experiment on SK-MEL-5 melanoma, in the experiment on MDA-MB-435 and in the experiment on SF-539 CNS was > 25 µM each time. Moreover, the TGI in the experiment with SK-MEL-2 melanoma, with HCC-2998 colon, in the experiment with SNB-75 CNS, in the experiment on RPMI-8226 leukemia, with NCI-H23 lung and in the experiment on UO-31 renal was > 25 µM throughout. Besides, the TGI in the experiment on OVCAR-5 ovarian, in the experiment on SK-MEL-5 melanoma, in the experiment with MDA-MB-435 and with SF-539 CNS was > 25 µM each time.

Turning to `O=C1Nc2c(C(F)(F)F)cccc2[C@@]1(c1ccc(O)cc1)c1ccc(OC(F)(F)F)cc1`, the GI50 was 0.0194 µM in the experiment on SK-MEL-2 melanoma; < 0.01 µM with HCC-2998 colon; < 0.01 µM with SNB-75 CNS; 8.99 µM in the experiment with RPMI-8226 leukemia; < 0.01 µM in the experiment with NCI-H23 lung; 0.0143 µM in the experiment with UO-31 renal. Also, the GI50 with OVCAR-5 ovarian is 0.0333 µM; in the experiment with SK-MEL-5 melanoma it was 0.2 µM; with MDA-MB-435, 7.92 µM; with SF-539 CNS it was 0.0161 µM. In addition, the TGI with SK-MEL-2 melanoma was 0.0515 µM; in the experiment on HCC-2998 colon it was 0.0131 µM; with SNB-75 CNS, < 0.0147 µM; in the experiment on RPMI-8226 leukemia, 50.8 µM; in the experiment with NCI-H23 lung, < 0.0135 µM; in the experiment with UO-31 renal, 0.028 µM. The TGI in the experiment on OVCAR-5 ovarian is 16 µM; in the experiment on SK-MEL-5 melanoma, 16.6 µM; in the experiment with MDA-MB-435 it was 21.9 µM; in the experiment on SF-539 CNS it was 0.0446 µM.

Take `CC(C)(C)C(=O)OCOP(=O)(OCOC(=O)C(C)(C)C)C1CC(O)N(O)C1=O` (stereo unspecified): the GI50 in the experiment on SK-MEL-2 melanoma was 5.14 µM; in the experiment with HCC-2998 colon, 4.04 µM; with SNB-75 CNS, 19.2 µM; in the experiment with RPMI-8226 leukemia, 2.88 µM; in the experiment with NCI-H23 lung, 3.67 µM; with UO-31 renal, 2.92 µM. The GI50 in the experiment on OVCAR-5 ovarian is 20.4 µM; with SK-MEL-5 melanoma it was 21.5 µM; in the experiment on MDA-MB-435 it was 8.15 µM; in the experiment with SF-539 CNS, 3.18 µM. The TGI is 92.1 µM in the experiment with SK-MEL-2 melanoma; 49 µM in the experiment with HCC-2998 colon; > 100 µM with SNB-75 CNS; 14.6 µM with RPMI-8226 leukemia; 25.3 µM in the experiment on NCI-H23 lung; 37.6 µM in the experiment with UO-31 renal. Moreover, the TGI in the experiment on OVCAR-5 ovarian was > 100 µM; with SK-MEL-5 melanoma, > 100 µM; in the experiment with MDA-MB-435, > 100 µM; in the experiment with SF-539 CNS it was 22.1 µM.

In the case of `O=C(c1ccccc1)c1ccc(Oc2ccc([N+](=O)[O-])cc2[N+](=O)[O-])cc1`, the GI50 is 4.57 µM in the experiment with SK-MEL-2 melanoma; 11.4 µM in the experiment on HCC-2998 colon; 5.62 µM with SNB-75 CNS; 2.56 µM in the experiment on RPMI-8226 leukemia; 4.33 µM in the experiment with NCI-H23 lung; 2.05 µM with UO-31 renal. Also, the GI50 in the experiment on OVCAR-5 ovarian was 3.43 µM; with SK-MEL-5 melanoma it was 2.02 µM; in the experiment on MDA-MB-435, 1.82 µM; with SF-539 CNS, 2.7 µM. Besides, the TGI is 22.6 µM with SK-MEL-2 melanoma; 25.3 µM in the experiment with HCC-2998 colon; 26.7 µM in the experiment on SNB-75 CNS; 7.72 µM in the experiment with RPMI-8226 leukemia; 54.9 µM in the experiment with NCI-H23 lung; 7.76 µM in the experiment on UO-31 renal. The TGI was 24.1 µM in the experiment with OVCAR-5 ovarian, 4.42 µM in the experiment on SK-MEL-5 melanoma, 3.98 µM in the experiment on MDA-MB-435 and 7.32 µM in the experiment with SF-539 CNS.

For `O=C1c2nsnc2C(=O)c2c(F)c(F)c(F)c(F)c21`, the GI50 is 2.17 µM in the experiment on SK-MEL-2 melanoma; 1.56 µM in the experiment on HCC-2998 colon; 1.02 µM in the experiment on SNB-75 CNS; 0.374 µM in the experiment on RPMI-8226 leukemia; 0.702 µM with UO-31 renal; 1.93 µM in the experiment on OVCAR-5 ovarian. For the same compound, the GI50 with SK-MEL-5 melanoma is 1.24 µM; with MDA-MB-435 it was 0.846 µM; in the experiment on SF-539 CNS, 1.7 µM. In addition, the TGI in the experiment with SK-MEL-2 melanoma stood at 4.81 µM; in the experiment with HCC-2998 colon it was 3.14 µM; in the experiment on SNB-75 CNS, 2.21 µM; in the experiment with RPMI-8226 leukemia, 1.63 µM; in the experiment with UO-31 renal, 2 µM; in the experiment on OVCAR-5 ovarian it was 3.47 µM. Further, the TGI was found to be 2.52 µM in the experiment with SK-MEL-5 melanoma, 2.14 µM in the experiment with MDA-MB-435 and 3.14 µM with SF-539 CNS.

As for `COc1cc2nc(SCC(=O)Nc3cc(OC)c(OC)c(OC)c3)n(Cc3ccccc3)c(=O)c2cc1OC`, the GI50 with SK-MEL-2 melanoma is 3.41 µM; in the experiment with HCC-2998 colon, 50.6 µM; in the experiment on SNB-75 CNS, 1.57 µM; in the experiment with RPMI-8226 leukemia, > 100 µM; in the experiment on NCI-H23 lung, 4.17 µM; in the experiment on UO-31 renal it was 1.95 µM. The results for the GI50 in the experiment on OVCAR-5 ovarian, in the experiment on MDA-MB-435 and in the experiment on SF-539 CNS were > 100 µM, 4.91 µM and 2.37 µM, respectively. The TGI in the experiment on SK-MEL-2 melanoma is 10.6 µM; in the experiment with HCC-2998 colon, > 100 µM; in the experiment on SNB-75 CNS, 3.38 µM; in the experiment with RPMI-8226 leukemia, > 100 µM; with NCI-H23 lung it was 50.3 µM; in the experiment with UO-31 renal, 8.85 µM. In addition, the TGI in the experiment on OVCAR-5 ovarian was > 100 µM; in the experiment on MDA-MB-435, > 100 µM; in the experiment on SF-539 CNS it was 5.78 µM.

The values above are taken from PubChem BioAssay (NCI).
